We go through six compounds from PMC5353780, “A novel benzo-heterocyclic amine derivative N30 inhibits influenza virus replication by depression of Inosine-5’-Monophospate Dehydrogenase activity” (Virology Journal, 2017).

Counter-ions that a name gives are not always drawn. Like-named read-outs stand apart in the source and are kept apart here. Bounds are passed on as bounds.

What is called IC50 is the concentration that gives 50% inhibition.

In one data set the test system is A/wuhan/359/1995. Put plainly: CPE assay in MDCK cells. As to conditions: for IC50: Influenza A virus, CPE, MDCK cells; for SI: TC50/IC50. Format: cell-based, Influenza A virus (H3N2).
The test system of the next data set is A/FortMonmouth/1/1947. Put plainly: CPE assay in MDCK cells. The data set is classed as cell-based, Influenza A virus (H1N1). The note with it: for IC50: Influenza A virus, CPE, MDCK cells; for SI: TC50/IC50.
A further data set has as its system BY/fujianxinluo/54/2006. Put plainly: CPE assay in MDCK cells. The data set is classed as cell-based, influenza B virus. The note with it: for IC50: Influenza B virus, CPE, MDCK cells; for SI: TC50/IC50.
The subject of another data set is BV/shenzhen/155/2005. Put plainly: CPE assay in MDCK cells. The data set is classed as cell-based, influenza B virus. As to conditions: for IC50: Influenza B virus, CPE, MDCK cells; for SI: TC50/IC50.
The conditions of data set [1]: in vivo; cited from earlier work.
A further data set concerns NA of IAV A/FM1/1947. Put plainly: NA inhibition assay (MUNANA). As to conditions: Fig. 2a. The data set is classed as biochemical, Influenza A virus.
The subject of the next data set is IAV. As to conditions: in vitro, at low micromolar concentrations; cited from earlier work.
For data set [2], the target named is T1, IMPDH type II (Homo sapiens, UniProt P12268).
T1 construct: purchased Sigma-Aldrich
Put plainly: Enzymatic assay of IMPDH type II. Format: biochemical. The note with it: after N30 treatment; Fig. 3b. As to the method:
The enzymatic assay was employed to evaluate the inhibitory effect of N30 on the activity of IMPDH type II by following the increase in formation of nicotinamide-adenine dinucleotide (NADH), which absorbance was read at 340 nm on Enspire at 30 °C. The 200 μL assay buffer contained 1 M Tris/HCl (pH 8.8), 1 M KCl, 30 mM EDTA, 10 μL IMPDH type II (Sigma-Aldrich), 1 mM DTT and NAD (Sigma-Aldrich). The reaction was started after addition of IMP, with final concentrations was 1 mM [19].

The subject of another data set is CVB5 (strain Faulkner). In words: CPE assay. The data set is classed as cell-based, Coxsackie virus B. As to conditions: for IC50: Enterovirus B, CVB5, CPE.
The test system of a further data set is RSV. The data set is classed as cell-based, respiratory syncytial virus (long strain).
The test system of a further data set is CVB2 (strain Ohio-1). Put plainly: CPE assay. The data set is classed as cell-based, Coxsackie virus B. The note with it: for IC50: Enterovirus B, CVB2, Ohio-1, CPE.
Another data set has as its system EV71(SZ98). Put plainly: CPE assay. Format: cell-based, Human enterovirus 71. The note with it: for IC50: Enterovirus A, EV71, CPE; for SI: TC50/IC50.
In a further data set the test system is viral hemagglutinin. Details: species or system Influenza A virus. The note with it: maximum concentration 40 μM, 10-fold dilutions; Fig. 2b.
For data set [3], the system named is IMPDH type II. Put plainly: IMPDH type II expression by western blot in MDCK cells. The data set is classed as cell-based, canine. The note with it: 24 h treatment, Fig. 3a. For orientation: In western blotting, separated proteins are transferred to a membrane and probed.
Data set [4] in a line: In vivo toxicity, body weight in mice. Details: species or system female Kun Ming mice. As to conditions: 100 mg/kg by oral administration in mice. As for the experimental part:
To determine the in vivo toxicity of N30 preliminarily, female Kun Ming mice were gavaged 100 mg/kg and 50 mg/kg N30 twice a day. Six mice enrolled in each group were gavaged with N30 or vehicle for continuous administration for 14 days, then weighted at day 0, 5, 10 and 14 respectively, shown in Table 5.

For a further data set, the system named is CVB1 (strain Conn-5). Put plainly: CPE assay. The data set is classed as cell-based, Coxsackie virus B. The note with it: for IC50: Enterovirus B, CVB1, CPE.
Another data set deals with CVB3 (strain Nancy). In words: CPE assay. As to conditions: for IC50: Enterovirus B, CVB3, CPE. The data set is classed as cell-based, Coxsackie virus B.
Data set [5] has as its system IAV A/Fort Monmouth/1/1947 (H1N1). Put plainly: IAV M2 protein and RNA expression in MDCK cells (western blot, qRT-PCR). The data set is classed as cell-based, Influenza A virus (H1N1). As to conditions: 0.01 MOI, 24 h post-infection, Fig. 1c and d. As for the experimental part: Fig. 1 Effects of N30 on IAV M2 protein and RNA expression in MDCK. a Chemical structure of N30. b The effect of N30 on viabilities of MRC-5, Vero, MDCK and Hep2 cells, which were measured by CCK. c The effect of N30 with different concentrations on IAV M2 protein and RNA expression. d The effect of N30 on IAV M2 protein and RNA expression compared with reference drugs. MDCK cells were infected with IAV A/Fort Monmouth/1/1947(H1N1) (0.01 multiplicity of infection [MOI, plaque-forming units (PFU)/cell]) for 2 hours, and treated with different concentrations of N30 or reference drugs for 24 h. Total mRNA and protein were extracted at 24 h post-infection, and analyzed by qRT-PCR and Western blotting respectively. […]
Cells were collected at 24 h post-infection and lysed in M-PER mammalian protein extraction reagent containing halt protease inhibitor cocktail (Thermo Fisher Scientific), sample proteins were subjected to SDS-PAGE and transferred to PVDF membrane (Millipore). After blocked with 5% milk, the membranes were incubated with antibodies against Influenza M2, β-actin (Santa Cruz), CVB3 VP1 (Millipore), IMPDH type II (Sigma-Aldrich), RSV M2 (Santa Cruz) and coronavirus (FIPV-70, Santa Cruz) respectively, then, the HRP-conjugated secondary antibodies were incubated and the signals were detected using an enhanced chemiluminescence (ECL) kit (GE Healthcare Life Sciences). […]

The next data set deals with CVB4 (strain J.V.B.). In words: CPE assay. The note with it: for IC50: Enterovirus B, CVB4, CPE. The data set is classed as cell-based, Coxsackie virus B.
Data set [6] concerns Vero cells. The note with it: African green monkey, 48 h.
A further data set has as its system EV71(BrCr). Put plainly: CPE assay. Format: cell-based, Human enterovirus 71. The note with it: for IC50: Enterovirus A, EV71, CPE; for SI: TC50/IC50.
Another data set relates to MDCK cells. The note with it: dog, 48 h.
The next data set relates to CVB6 (strain Schmitt). Put plainly: CPE assay. Format: cell-based, Coxsackie virus B. The note with it: for IC50: CPE.
For data set [7], the system named is Vero cells. In words: Cytotoxicity test (CCK). As to conditions: 50% toxicity concentration.
For data set [8] the following is noted: human, in vivo, cited from earlier work.

Procedure for viral hemagglutinin: Briefly, the diluted IAV were mixed with diluted compounds in a U bottom 96-well plate. After incubation at 4 °C for 40 min, equal volume of 1.2% chicken erythrocyte suspension was added to each well. Then, the erythrocyte aggregation was evaluated by visual inspection after 40 min [17, 18].

Consider `NC12CC3CC(CC(C3)C1)C2` [AH, amantadine hydrochloride], for which the IC50 was 15.6 ± 0.31 µM in the data set on A/wuhan/359/1995, 0.65 ± 0.59 µM in the data set with A/FortMonmouth/1/1947, above 200 µM with BY/fujianxinluo/54/2006 and above 200 µM with BV/shenzhen/155/2005.
`COc1c(C)c2c(c(O)c1C/C=C(\C)CCC(=O)OCCN1CCOCC1)C(=O)OC2` [MMF, mycophenolate mofetil]: in [1], the side effects entry is “diarrhea, leucopenia, sepsis, and vomiting”.
For the compound `O=[N+]([O-])c1ccc(CNc2ccc3ncsc3c2)cc1` [N30, N-(4-nitrophenylmethyl) benzothiazole-6-amine], the “effect on NA activity” value in the data set with NA of IAV A/FM1/1947 is “little inhibitory effect”. The “activity towards IAV” value in the data set on IAV is “potent activity”. Besides, the IC50 in the data set on A/wuhan/359/1995 is 1.31 ± 0.87 µM; in the data set with A/FortMonmouth/1/1947 it was 1.93 ± 0.16 µM; with CVB5 (strain Faulkner), 2.54 ± 1.43 µM; in the data set on CVB2 (strain Ohio-1) it was 11.7 ± 2.94 µM; in the data set on EV71(SZ98) it was 10.6 ± 3.76 µM; in the data set with CVB1 (strain Conn-5), 6.28 ± 1.61 µM. Besides, the IC50 is 0.7 ± 0.18 µM with BY/fujianxinluo/54/2006; 1.82 ± 2.76 µM in the data set on CVB3 (strain Nancy); 1.16 ± 0.69 µM with BV/shenzhen/155/2005; 10.4 ± 3.13 µM in the data set on CVB4 (strain J.V.B.); 8.04 ± 3.77 µM with EV71(BrCr); 6.81 ± 1.89 µM in the data set on CVB6 (strain Schmitt). The SI with A/wuhan/359/1995 is reported as 50.89; in the data set on A/FortMonmouth/1/1947, 34.54; with CVB5 (strain Faulkner) (TC50/IC50), 35.26; in the data set on CVB2 (strain Ohio-1) (TC50/IC50), 7.69; in the data set on EV71(SZ98), 8.42; in the data set on CVB1 (strain Conn-5) (TC50/IC50) it was 14.26. For the same compound, the SI in the data set on BY/fujianxinluo/54/2006 is given as 95.24; in the data set with CVB3 (strain Nancy) (TC50/IC50), 49.21; with BV/shenzhen/155/2005, 57.47; in the data set with CVB4 (strain J.V.B.) (TC50/IC50) it was 8.64; in the data set with EV71(BrCr), 11.14; in the data set with CVB6 (strain Schmitt), 13.15. Also, at IMPDH type II [2], the “reduction of the enzymatic reaction rate of IMPDH” value is on record as 38.18%. Further, the “expression of the viral proteins” value in the data set on RSV (10 μM N30, RSV-infected Hep2 cells) is “almost completely inhibit”. Also, the “RSV M2 mRNA and protein expressions” value with RSV (RSV-infected Hep2 cells, 0.025 MOI, 24 h, Fig. 4b) is recorded as “markedly decreased”. The “hemagglutination inhibition (aggregation of chicken erythrocytes)” value (“hemagglutination inhibition” for short) with viral hemagglutinin is “could not inhibit the aggregation of chicken erythrocytes”. The IMPDH expression entry with IMPDH type II [3] is on record as “have not been lessened”. The acute toxicity entry in data set [4] is reported as “little acute toxicity”. Also, the “amounts of IAV M2 protein and RNA” value in data set [5] is “dosage dependent relationship”. The results for the TC50 with Vero cells [6] and with MDCK cells were 89.56 ± 4.25 µM and 66.67 µM, respectively.
As for `CCC(CC)O[C@@H]1C=C(C(=O)O)C[C@H](N)[C@H]1NC(C)=O` [OC, oseltamivir carboxylate], in the data set on NA of IAV A/FM1/1947, the “effect on NA activity” value was “significantly reduce the activity of NA in a dose dependent manner”. Further, the IC50 was 0.12 ± 0.01 µM with A/wuhan/359/1995, 0.25 ± 0.01 µM in the data set with A/FortMonmouth/1/1947, 0.56 ± 0.02 µM with BY/fujianxinluo/54/2006 and 1.02 ± 0.08 µM in the data set on BV/shenzhen/155/2005. Also, the SI in the data set with A/wuhan/359/1995 was above 416.67; in the data set on A/FortMonmouth/1/1947, above 200; in the data set with BY/fujianxinluo/54/2006, above 89.28; in the data set with BV/shenzhen/155/2005 it was above 49.02. In addition, the “hemagglutination inhibition” value in the data set on viral hemagglutinin was “did not show the inhibitory effect”. Also, in the data set on MDCK cells, the TC50 is above 50 µM.
`CCOC(=O)c1ccc(OCCC2CCN(c3ccc(C)nn3)CC2)cc1` [Pirodavir]: the IC50 in the data set on EV71(SZ98) worked out at 0.27 ± 0.27 µM; in the data set with EV71(BrCr) it was 0.16 µM. Further, the SI with EV71(SZ98) is recorded as 120.6; with EV71(BrCr), 203.56. Further, in the data set with Vero cells [7] (Tables 3 and 4, CCK, 48 h), the TC50 was 32.57 ± 0.55 µM.
Turning to `NC(=O)c1ncn([C@@H]2O[C@H](CO)[C@@H](O)[C@H]2O)n1` [RBV, Ribavirin], the 50% inhibitory concentration (IC50) with A/wuhan/359/1995 was 8.23 ± 6.31 µM; in the data set with A/FortMonmouth/1/1947, 1.64 ± 0.72 µM; with CVB5 (strain Faulkner), 1200 ± 530 µM; in the data set on CVB2 (strain Ohio-1), 2270 ± 180 µM; in the data set on CVB1 (strain Conn-5) it was 2370 ± 360 µM; in the data set on BY/fujianxinluo/54/2006, 2.48 ± 0.53 µM. For the same compound, the IC50 in the data set with CVB3 (strain Nancy) was 3130 ± 1210 µM; with BV/shenzhen/155/2005, 1.7 ± 0.57 µM; in the data set with CVB4 (strain J.V.B.), 2470 ± 1600 µM; in the data set on CVB6 (strain Schmitt) it was 4560 ± 2410 µM. In addition, the “hemagglutination inhibition” value with viral hemagglutinin is “did not show the inhibitory effect”. Moreover, the IMPDH expression entry with IMPDH type II [3] is on record as “no inhibition”. Besides, the TC50 in the data set on Vero cells [7] (Table 3) is above 20000 µM. The bilirubin values result in [8] (po) is listed as “elevated the bilirubin values”. The anemia result in data set [8] was “transient anemia”.
